Test results: PMC9973354 (mBio, 2022)
Starred links: 1 amine or outer side, 2 acyl side, 3 side chain; linkers in the order of their positions; H or OH if unused. Positions of bridges follow the written chain, without caps; N, C: chain ends. Non-standard residues stand in square brackets, D forms with d. Residues, ends and D or L forms follow the SMILES beside them. ξ: configuration not given here. X1 = O=C([C@@H]1CCN=C2C(N[*:1])=Cc3cc(O)c(O)cc3N21)[*:2]; ξOrn(N(OH)CHO) = NC(CCCN(O)C=O)C(=O)O; Suc = O=C(CCC(=O)[*:2])[*:1]; ξK = NCCCCC(N)C(=O)O; ξS = NC(CO)C(=O)O

Experiments:
PA14 ΔfpvA ΔfpvB mutant = assay: Growth curves with DSX and siderophores, ΔfpvA ΔfpvB; format: cell-based, Pseudomonas aeruginosa; conditions: 20 h
Method: Supplementary file : FIG S1 (A) FpvB is expressed in WT PA14 and the ΔfpvA mutant grown in 10:90. PilF was used as a loading control for outer membrane proteins. (B) FpvA is expressed from WT PA14 grown in 10:90. […] PilF was used as a loading control for outer membrane proteins. (C) Growth curves of PA14 and mutants with DSX and different siderophores in 10:90. PA14, ΔfpvA, ΔfpvB, ΔfpvA ΔfpvB, and ΔpvdA ΔpchA strain growth. Blue indicates control, purple indicates treatment with 64 μg/mL DSX, yellow indicates treatment with 10 μg/mL pyoverdine (PA14), and red indicates treatment with 64 μg/mL DSX and 10 μg/mL pyoverdine (PA14). (D) ΔfpvA, ΔfpvA ΔfpvB, and ΔpvdA ΔpchA strain growth. Blue indicates control, purple indicates treatment with 64 μg/mL DSX, grey indicates treatment with 10 μg/mL ferrichrome, and red indicates treatment with 64 μg/mL DSX and 10 μg/mL ferrichrome. (E) ΔfpvA, ΔfpvA ΔfpvB, and ΔpvdA ΔpchA strain growth. […] Download FIG S1, EPS file, 8.5 MB.
Another explanation for the susceptibility of the ΔfpvA mutant to DSX is that the mutant produces less pyoverdine compared to WT cells due to loss of the signaling cascade that controls siderophore production in response to its binding to FpvA ([25]). To differentiate whether the fpvA mutant was susceptible to DSX because of reduced pyoverdine production or because FpvB was a poor pyoverdine transporter, we treated the WT, ΔfpvA, ΔfpvB, and ΔfpvA ΔfpvB strains with DSX (64 μg/mL) without and with exogenous pyoverdine (10 μg/mL) for 20 h (Fig. 1; see also Fig. S1C). Growth of the ΔfpvA mutant should be restored if there are functional pyoverdine transporters. […] The growth of the ΔfpvA ΔfpvB mutant was inhibited by DSX and pyoverdine, confirming previously published results ([18]).
As a control, a ΔpvdA ΔpchA mutant unable to make pyoverdine and pyochelin was also tested. Growth of this mutant was inhibited by DSX.

FpvB W347V R648C = target: T1, FpvB W347V R648C (Pseudomonas aeruginosa, UniProt A0A0H2ZFZ5, R648C/W347V); assay: Whole-cell fluorescence quenching, FpvB W347V R648C; format: binding; conditions: FpvB W347V R648C
T1 sequence (A0A0H2ZFZ5 23-802 W347V/R648C): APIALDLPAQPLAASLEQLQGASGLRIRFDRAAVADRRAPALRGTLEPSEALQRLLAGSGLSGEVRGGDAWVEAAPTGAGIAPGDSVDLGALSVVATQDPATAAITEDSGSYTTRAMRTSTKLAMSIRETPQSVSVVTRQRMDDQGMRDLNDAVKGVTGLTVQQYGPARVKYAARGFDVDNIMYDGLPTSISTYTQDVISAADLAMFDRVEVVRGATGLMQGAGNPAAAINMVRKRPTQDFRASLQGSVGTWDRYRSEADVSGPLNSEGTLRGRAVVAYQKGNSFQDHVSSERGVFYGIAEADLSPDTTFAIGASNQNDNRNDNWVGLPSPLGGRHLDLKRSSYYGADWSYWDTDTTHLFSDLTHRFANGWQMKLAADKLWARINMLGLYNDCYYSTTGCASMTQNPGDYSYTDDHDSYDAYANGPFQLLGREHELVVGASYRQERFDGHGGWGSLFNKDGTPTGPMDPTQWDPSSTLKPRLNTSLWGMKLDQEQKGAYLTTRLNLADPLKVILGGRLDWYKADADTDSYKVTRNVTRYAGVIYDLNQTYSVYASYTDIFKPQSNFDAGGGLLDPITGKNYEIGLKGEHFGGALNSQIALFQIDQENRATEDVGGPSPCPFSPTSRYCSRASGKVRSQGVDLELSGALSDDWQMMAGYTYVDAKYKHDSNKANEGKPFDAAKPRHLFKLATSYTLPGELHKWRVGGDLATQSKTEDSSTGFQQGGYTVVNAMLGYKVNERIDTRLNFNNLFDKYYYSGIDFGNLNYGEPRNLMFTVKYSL
Method: Quenching assays with the two xenosiderophores were repeated for the quadruple TBDT mutant expressing WT FpvB, FpvB R191A R648C, or W347V R648C.
Cells were cultured overnight in LB with carbenicillin (200 μg/mL) at 37°C with shaking at 200 rpm. Cells were subcultured (1:200 dilution) in 10:90 plus 2% arabinose for 4 h without carbenicillin at 37°C with shaking at 200 rpm. Cells were harvested by centrifugation for 5 min and 6,000 × g and resuspended in sterile 1× phosphate-buffered saline (PBS) (pH 7.4); 1× PBS was made from a 10× stock (80 g NaCl, 2 g KCl, 26.8 g Na2 HPO4-7H2O, 2.4 g KH2PO4 in 1 L of deionized H2O) with 10 μM Alexa Fluor 594 C5 maleimide for microscopy or fluorescein-5-maleimide for fluorescence quenching and recovery assays and incubated in the dark at room temperature for 30 min on a shaking incubator at 37°C (200 rpm). Excess dye was quenched with 1 mM dithiothreitol (DTT) (Sigma) to stop the reaction. Cells were washed 3× with PBS. For fluorescence recovery assays, cells were incubated with 1× PBS plus 0.4% glucose at 37°C with shaking at 200 rpm. Glucose was prepared as a 20% stock (wt/vol) in 1× PBS and filter sterilized. Cells were spun down and washed 3× with 1× PBS and resuspended in 1× PBS for quenching assays and 1× PBS plus 0.4% glucose for fluorescence recovery assays.
For fluorescence quenching and recovery assays, cells were diluted to an OD600 of 0.1 for both types of assays, and 148 μL was added into wells of a 96-well black plate (Corning). Fluorescence was recorded for 5 min at 1-min intervals at 37°C (BioTek Neo; excitation, 494 nm; emission, 520 nm). After 5 min, 2 μL of each serial dilution for ferrioxamine-Fe^3+, ferrichrome-Fe^3+, and pyoverdine-Fe^3+ or DMSO for vehicle controls was added to each well. Fluorescence was recorded immediately for quenching assays and for 1 h at 1-min intervals for fluorescence recovery assays. Background fluorescence was subtracted from all fluorescence readings and 1-F/F0 was used to calculate the degree of quenching, where F0 is the initial fluorescence. Kd was calculated using GraphPad Prism using a one-site specific binding model or a two-site model. For fluorescence recovery assays, background was subtracted from all fluorescence readings and F/F0 expressed as a percent of control was plotted versus time.

FpvB = assay: Western blot of FLAG-tagged FpvB expression after compound treatment; format: cell-based, Pseudomonas aeruginosa; conditions: WT PA14 fpvB-FLAG; 10 μg/mL siderophores, 64 μg/mL DSX, 10:90

Row | SMILES | growth versus control (PA14 ΔfpvA ΔfpvB mutant; DSX 64 μg/mL, pyoverdine 10 μg/mL) | affinity (Kd not reached, no saturation at highest concentration) (FpvB W347V R648C) | stimulation of FpvB expression (FpvB) | growth with siderophore in the presence of DSX (PA14 ΔfpvA ΔfpvB mutant; 64 μg/mL DSX + 10 μg/mL siderophore) | Kd (FpvB W347V R648C; one-site model, read-out: Kd (converted)) [µM]
1 | NCCCCC(NC(=O)C(CO)NC(=O)[C@@H]1CCN=C2C(NC(=O)CCC(=O)O)=Cc3cc(O)c(O)cc3N21)C(=O)NCC(=O)NC(CCCN(O)C=O)C(=O)NC1CCCCNC(=O)C(CO)NC(=O)C(CCCN(O)C=O)NC1=O (stereo partly drawn) [pyoverdine] (Suc-[X1][ξS][ξK]G[ξOrn(N(OH)CHO)][ξK][ξOrn(N(OH)CHO)][ξS]; lactam 6-C) | inhibited | reduced affinity | None of the compounds stimulated expression |  | 
2 | CC(=O)N(O)CCCCCNC(=O)CCC(=O)N(O)CCCCCNC(=O)CCC(=O)N(O)CCCCCN [ferrioxamine B] |  |  | None of the compounds stimulated expression | rescued growth | 874
